Test results: patent US9833497B2, “Human originated EGF domain proteins and use of the same” (CHENGDU SOURCEBIO LIMITED-LIABILITY COMPANY, priority 2013, dated 2017)

Tests used:
Type in all cases: cell-based
E. coli DH5α = test: Antibacterial activity: MIC and growth curve against E. coli DH5α in 96-well plate; details: minimal inhibitory concentration against E. coli DH5α; 96-well plate, 5×10^5 CFU/mL, 37° C., judged after 8 h
Summary of the method: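 MIC taken as lowest protein level with no bacterial growth, tracked by A600 every 30 min during 37 °C, 175 rpm culture. Two-fold protein series 50-12.5 μg/mL final, triplicate wells, against 5×10^5 CFU/mL of LB-washed mid-log cells.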

Moraxella catarrhalis = test: MIC against Gram-negative bacteria: Moraxella catarrhalis; details: 5×10^5 CFU/mL
Summary of the method: (§1)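 Bacteria grown in LB at 37° C with shaking to McFarland 0.5, pelleted and resuspended in fresh LB, then seeded at 5×10^5 CFU/mL per well. Purified recombinant human EGF domain proteins were two-fold serially diluted in triplicate and plates shaken at 37° C, 175 rpm. MIC is the lowest protein concentration with no bacterial growth.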

Pseudomonas aeruginosa = test: MIC against Gram-negative bacteria: Pseudomonas aeruginosa; details: 5×10^5 CFU/mL
Summary of the method: as §1

Proteus vulgaris = test: MIC against Gram-negative bacteria: Proteus vulgaris; details: 5×10^5 CFU/mL
Summary of the method: as §1

Proteus mirabilis = test: MIC against Gram-negative bacteria: Proteus mirabilis; details: 5×10^5 CFU/mL
Summary of the method: as §1

Aeromonas hydrophila = test: MIC against Gram-negative bacteria: Aeromonas hydrophila; details: 5×10^5 CFU/mL
Summary of the method: as §1

Citrobacter diversus = test: MIC against Gram-negative bacteria: Citrobacter diversus; details: 5×10^5 CFU/mL
Summary of the method: as §1

Serratia marcescens = test: MIC against Gram-negative bacteria: Serratia marcescens; details: 5×10^5 CFU/mL
Summary of the method: as §1

Klebsiella pneumonia = test: MIC against Gram-negative bacteria: Klebsiella pneumonia; details: 5×10^5 CFU/mL
Summary of the method: as §1

Enterobacter cloacae = test: MIC against Gram-negative bacteria: Enterobacter cloacae; details: 5×10^5 CFU/mL
Summary of the method: as §1

E. coli BL21 = test: MIC against Gram-negative bacteria: E. coli BL21; details: 5×10^5 CFU/mL
Summary of the method: as §1

[1] = Moraxella catarrhalis, 96-well plate, 37° C., 10 h
[2] = Pseudomonas aeruginosa, 96-well plate, 37° C., 10 h
[3] = Proteus vulgaris, 96-well plate, 37° C., 10 h
[4] = Proteus mirabilis, 96-well plate, 37° C., 10 h
[5] = Aeromonas hydrophila, 96-well plate, 37° C., 10 h
[6] = Citrobacter diversus, 96-well plate, 37° C., 10 h
[7] = Serratia marcescens, 96-well plate, 37° C., 10 h
[8] = Klebsiella pneumonia, 96-well plate, 37° C., 10 h
[9] = Enterobacter cloacae, 96-well plate, 37° C., 10 h
[10] = E. coli BL21, 96-well plate, 37° C., 10 h

## PRT1402 (DGCPDLCNGNGRCTLGQNSWQCVCQTGWRGPGCN; listed as Homo sapiens)
E. coli DH5α
  MIC: 25 µg/mL
Moraxella catarrhalis; Moraxella catarrhalis, 10 h cultivation at 37° C.
  MIC against M. catarrhalis: 25 µg/mL
Pseudomonas aeruginosa; Pseudomonas aeruginosa, 10 h cultivation at 37° C.
  MIC against P. aeruginosa: 25 µg/mL
Proteus vulgaris; Proteus vulgaris, 10 h cultivation at 37° C.
  MIC against P. vulgaris: 25 µg/mL
Proteus mirabilis; Proteus mirabilis, 10 h cultivation at 37° C.
  MIC against P. mirabilis: 50 µg/mL
Aeromonas hydrophila; Aeromonas hydrophila, 10 h cultivation at 37° C.
  MIC against A. hydrophila: 25 µg/mL
Citrobacter diversus; Citrobacter diversus, 10 h cultivation at 37° C.
  MIC against C. diversus: 12.5 µg/mL
Serratia marcescens; Serratia marcescens, 10 h cultivation at 37° C.
  MIC against S. marcescens: 12.5 µg/mL
Klebsiella pneumonia; Klebsiella pneumonia, 10 h cultivation at 37° C.
  MIC against K. pneumonia: 12.5 µg/mL
Enterobacter cloacae; Enterobacter cloacae, 10 h cultivation at 37° C.
  MIC against E. cloacae: 50 µg/mL
E. coli BL21; E. coli BL21, 10 h cultivation at 37° C.
  MIC against E. coli BL21: 12.5 µg/mL

## PRT126 (IIDRCVPNHCEHGGKCSQTWDSFKCTCDETGYSGATCH; listed as Homo sapiens)
E. coli DH5α
  MIC: 12.5 µg/mL
Moraxella catarrhalis; [1]
  MIC (μg/mL) M. catarrhalis: 100 µg/mL
Pseudomonas aeruginosa; [2]
  MIC (μg/mL) P. aeruginosa: 12.5 µg/mL
Proteus vulgaris; [3]
  MIC (μg/mL) P. vulgaris: 12.5 µg/mL
Proteus mirabilis; [4]
  MIC (μg/mL) P. mirabilis: 25 µg/mL
Aeromonas hydrophila; [5]
  MIC (μg/mL) A. hydrophila: 12.5 µg/mL
Citrobacter diversus; [6]
  MIC (μg/mL) C. diversus: 12.5 µg/mL
Serratia marcescens; [7]
  MIC (μg/mL) S. marcescens: 25 µg/mL
Klebsiella pneumonia; [8]
  MIC (μg/mL) K. pneumonia: 50 µg/mL
Enterobacter cloacae; [9]
  MIC (μg/mL) E. cloacae: 12.5 µg/mL
E. coli BL21; [10]
  MIC (μg/mL) E. coli BL21: 50 µg/mL

## PRT14 (PPKPCDSQPCFHGGTCQDWALGGGFTCSCPAGRGGAVCE; listed as Homo sapiens)
E. coli DH5α
  MIC: 25 µg/mL
Moraxella catarrhalis; [1]
  MIC (μg/mL) M. catarrhalis: 12.5 µg/mL
Pseudomonas aeruginosa; [2]
  MIC (μg/mL) P. aeruginosa: 25 µg/mL
Proteus vulgaris; [3]
  MIC (μg/mL) P. vulgaris: 50 µg/mL
Proteus mirabilis; [4]
  MIC (μg/mL) P. mirabilis: 25 µg/mL
Aeromonas hydrophila; [5]
  MIC (μg/mL) A. hydrophila: 50 µg/mL
Citrobacter diversus; [6]
  MIC (μg/mL) C. diversus: 25 µg/mL
Serratia marcescens; [7]
  MIC (μg/mL) S. marcescens: 12.5 µg/mL
Klebsiella pneumonia; [8]
  MIC (μg/mL) K. pneumonia: 12.5 µg/mL
Enterobacter cloacae; [9]
  MIC (μg/mL) E. cloacae: 25 µg/mL
E. coli BL21; [10]
  MIC (μg/mL) E. coli BL21: 50 µg/mL

## PRT615 (CDCHALGSTNGQCDIRTGQCECQPGITGQHCERCEVNHFGFGPEGCKP; listed as Homo sapiens)
E. coli DH5α
  MIC: 12.5 µg/mL
Moraxella catarrhalis; 96-well plate, 37° C., 10 h
  MIC M. catarrhalis: 25 µg/mL
Pseudomonas aeruginosa; 96-well plate, 37° C., 10 h
  MIC P. aeruginosa: 12.5 µg/mL
Proteus vulgaris; 96-well plate, 37° C., 10 h
  MIC P. vulgaris: 25 µg/mL
Proteus mirabilis; 96-well plate, 37° C., 10 h
  MIC P. mirabilis: 12.5 µg/mL
Aeromonas hydrophila; 96-well plate, 37° C., 10 h
  MIC A. hydrophila: 25 µg/mL
Citrobacter diversus; 96-well plate, 37° C., 10 h
  MIC C. diversus: 50 µg/mL
Serratia marcescens; 96-well plate, 37° C., 10 h
  MIC S. marcescens: 50 µg/mL
Klebsiella pneumonia; 96-well plate, 37° C., 10 h
  MIC K. pneumonia: 25 µg/mL
Enterobacter cloacae; 96-well plate, 37° C., 10 h
  MIC E. cloacae: 12.5 µg/mL
E. coli BL21; 96-well plate, 37° C., 10 h
  MIC E. coli BL21: 25 µg/mL

## PRT517 (CQCFGHAESCDDVTGECLNCKDHTGGPYCDKCLPGFYGEPTKGTSEDCQP; listed as Homo sapiens)
E. coli DH5α
  MIC: 25 µg/mL
Moraxella catarrhalis; 96-well plate, 37° C., 10 h
  MIC against M. catarrhalis: 50 µg/mL
Pseudomonas aeruginosa; 96-well plate, 37° C., 10 h
  MIC against P. aeruginosa: 25 µg/mL
Proteus vulgaris; 96-well plate, 37° C., 10 h
  MIC against P. vulgaris: 12.5 µg/mL
Proteus mirabilis; 96-well plate, 37° C., 10 h
  MIC against P. mirabilis: 25 µg/mL
Aeromonas hydrophila; 96-well plate, 37° C., 10 h
  MIC against A. hydrophila: 12.5 µg/mL
Citrobacter diversus; 96-well plate, 37° C., 10 h
  MIC against C. diversus: 25 µg/mL
Serratia marcescens; 96-well plate, 37° C., 10 h
  MIC against S. marcescens: 25 µg/mL
Klebsiella pneumonia; 96-well plate, 37° C., 10 h
  MIC against K. pneumonia: 50 µg/mL
Enterobacter cloacae; 96-well plate, 37° C., 10 h
  MIC against E. cloacae: 25 µg/mL
E. coli BL21; 96-well plate, 37° C., 10 h
  MIC against E. coli BL21: 12.5 µg/mL

## PRT1281 (DLCLSSPCQNQGTCHNDPLEVYRCACPSGYKGRDCE; listed as Homo sapiens)
E. coli DH5α
  MIC: 50 µg/mL
Moraxella catarrhalis; [1]
  MIC against M. catarrhalis: 12.5 µg/mL
Pseudomonas aeruginosa; [2]
  MIC against P. aeruginosa: 25 µg/mL
Proteus vulgaris; [3]
  MIC against P. vulgaris: 12.5 µg/mL
Proteus mirabilis; [4]
  MIC against P. mirabilis: 50 µg/mL
Aeromonas hydrophila; [5]
  MIC against A. hydrophila: 12.5 µg/mL
Citrobacter diversus; [6]
  MIC against C. diversus: 50 µg/mL
Serratia marcescens; [7]
  MIC against S. marcescens: 50 µg/mL
Klebsiella pneumonia; [8]
  MIC against K. pneumonia: 50 µg/mL
Enterobacter cloacae; [9]
  MIC against E. cloacae: 25 µg/mL
E. coli BL21; [10]
  MIC against E. coli BL21: 12.5 µg/mL
